Assay results from paper PMC8042770, “Odorant Receptors for Detecting Flowering Plant Cues Are Functionally Conserved across Moths and Butterflies” (Molecular Biology and Evolution, 2020).
pEC50: −log10 of the molar value. Entries after “also recorded” stand apart in the source; their conditions may differ.

Key:
[1] = test system: HarmOR42 orthologs from 11 lepidopteran species; assay: Xenopus oocyte voltage clamp of HarmOR42 orthologs, six-odorant screen; type: cell-based; conditions: six compounds at 10^−4 M; 11 species
Description: We gathered additional experimental evidence to support this conservation of a PAA-sensing function by performing in vitro functional characterization of HarmOR42 orthologs from 11 lepidopteran species belonging to eight families (fig. 5B). […] It should be noted that the species studied here included three Noctuidae species (H. armigera, H. assulta, and Mythimna separata), four moths from Bombycidae (Bombyx mori), Crambidae (Chilo suppressalis), Sphingidae (Manduca sexta), and Tortricidae (Grapholitha molesta) ([Mitter et al. 2017]; [Kawahara et al. 2019]), and four diurnal butterfly species from diverse families (Vanessa tameamea, Papilio xuthus, Danaus plexippus, and Pieris rapae) (fig. 5B). […]
(§1) Functional characterization of individual ORs was performed by heterologous expression in Xenopus oocytes combined with a two-electrode voltage-clamp system ([Wang et al. 2010]). […] After incubation in nutrient solution at 18 °C for 3–5 days, the response profile of each oocyte to multiple plant odorants was recorded via a two-electrode voltage clamp (OC-725C oocyte clamp, Warner Instruments, Hamden, CT) at a holding potential of −80 mV. Data were acquired by using a Digidata 1440 A and were analyzed by pCLAMP 10.2 software (Axon Instruments Inc., Union City, CA). […]

RnubOR13 = assay: Xenopus oocyte voltage clamp of RnubOR13; type: cell-based, Rhyacophila nubila; conditions: test panel
Description: (§2) We also examined the response profile of EsemOR19 from E. semipurpurella, an OR that falls close to the HarmOR42-defined clade but that is not considered as a HarmOR42 ortholog. […] We also characterized the function of RnubOR13 from R. nubila (Trichoptera), a species from a sister order of Lepidoptera. […] Unfortunately, the putative E. semipurpurella OR that would consist of EsemOR34 + 35 and that falls at the base of the HarmOR42 clade could not be tested as it is incomplete.
as §1, with “2010]). Briefly, the full-length gene of each OR and Orco were subcloned into the eukaryotic expression vector pT7TS. cRNAs were generated from linearized expression vectors using the mMESSAGE mMACHINE T7 kit (Ambion, Austin, TX).” for “2010]).”

HarmOR42 = HarmOR42 (Helicoverpa armigera, UniProt A0A7T3KAF6); assay: Xenopus oocyte two-electrode voltage clamp, HarmOR42 + Orco; type: cell-based
Description: In preliminary screening, we used a high dosage (10^−4 M) of odorants. […] Most functional ORs responded robustly to multiple odorants. The strongest response (up to ∼6,000 nanoampere, nA) we detected was that of HarmOR42 toward the aromatic compound PAA. Further, the response profiles of the 28 HarmORs appeared to be highly differentiated, with no apparent overlap in their tuning spectra (with the exception of HarmOR12 and 36) according to functional cluster analysis (fig. 1A).
(§3) In order to expand our analysis on the response properties of HarmORs, we conducted dose–response analyses for the 28 functional HarmORs. […] Six HarmORs (OR3, 22, 48, 50, 56, and 66) could not be activated by any ligand at 10^−5 M. For the other 22 HarmORs, dose–response curves were generated and EC50 values of their major ligands were calculated (fig. 2A and supplementary table S2, Supplementary Material online). The HarmOR repertoire was highly efficient in terpene detection, since the lowest EC50 values were obtained for such compounds. Many of these terpenes have been proposed to be defensive chemicals of plants. […] DMNT is also one of the oviposition deterring compounds found in larval frass of some Lepidoptera species such as S. littoralis ([Anderson et al. 1993]).
(§4) Functional characterization of individual ORs was performed by heterologous expression in Xenopus oocytes combined with a two-electrode voltage-clamp system ([Wang et al. 2010]). Briefly, the full-length gene of each OR and Orco were subcloned into the eukaryotic expression vector pT7TS. cRNAs were generated from linearized expression vectors using the mMESSAGE mMACHINE T7 kit (Ambion, Austin, TX). Then, the cRNA mixture of ORx and Orco (27.6 ng each) was injected (Nanoliter 2010, WPI Inc., Sarasota, FL) into oocytes (stage V–VII). The respective Orcos of different species were used for functional studies of OR42 orthologs except for the four butterfly species (V. tameamea, P. xuthus, D. plexippus, and P. rapae), in which we used the Orco from P. xuthus. After incubation in nutrient solution at 18 °C for 3–5 days, the response profile of each oocyte to multiple plant odorants was recorded via a two-electrode voltage clamp (OC-725C oocyte clamp, Warner Instruments, Hamden, CT) at a holding potential of −80 mV. Data were acquired by using a Digidata 1440 A and were analyzed by pCLAMP 10.2 software (Axon Instruments Inc., Union City, CA).
(§5) Stock solutions of each odorant were prepared at 1 M using DMSO as a solvent, and each odorant was diluted in 1× Ringer’s solution to the indicated concentrations for electrophysiological recording. For functional screening of each HarmOR, a panel of 67 odorants belonging to three types of chemical classes: terpenes, aromatics, and aliphatics (short-chain fatty acid) were used (supplementary table S1, Supplementary Material online). For functional studies of OR42 orthologs from different species, six odorants including PAA, benzaldehyde, (E)-2-hexen-1-al, cinnamaldehyde, 2-phenylethanol, and heptanal were used.

HarmOR59 = HarmOR59 (Helicoverpa armigera, UniProt A0A7T3KAU6); assay: Xenopus oocyte two-electrode voltage clamp, HarmOR59 + Orco; type: cell-based
Protocol: as §3, §4, §5

EsemOR19 = assay: Xenopus oocyte voltage clamp of EsemOR19; type: cell-based, Eriocrania semipurpurella; conditions: 10^−4 M
Description: as §2
Full-length coding sequences of 45 ORs (including Orco) of H. armigera, and OR42 and Orco orthologs in B. mori, H. assulta, G. molesta, and M. separate were amplified from the antennal cDNA of each species adults by PCR with specific primer pairs of each gene. […]
as §1

Chain of HarmOR42 (A0A7T3KAF6 entry or part of it): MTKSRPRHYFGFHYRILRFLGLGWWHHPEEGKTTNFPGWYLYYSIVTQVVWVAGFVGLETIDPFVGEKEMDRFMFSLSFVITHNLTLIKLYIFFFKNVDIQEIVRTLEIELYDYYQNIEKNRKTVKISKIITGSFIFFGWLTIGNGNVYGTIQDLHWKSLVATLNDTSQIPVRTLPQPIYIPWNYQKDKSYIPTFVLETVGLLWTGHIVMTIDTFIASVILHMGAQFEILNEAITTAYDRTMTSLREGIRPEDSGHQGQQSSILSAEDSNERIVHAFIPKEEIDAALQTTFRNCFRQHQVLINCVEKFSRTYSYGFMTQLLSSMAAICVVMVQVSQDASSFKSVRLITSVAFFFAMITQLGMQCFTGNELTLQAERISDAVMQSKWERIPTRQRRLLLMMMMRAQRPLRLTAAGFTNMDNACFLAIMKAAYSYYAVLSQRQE
Chain of HarmOR59 (A0A7T3KAU6 entry or part of it): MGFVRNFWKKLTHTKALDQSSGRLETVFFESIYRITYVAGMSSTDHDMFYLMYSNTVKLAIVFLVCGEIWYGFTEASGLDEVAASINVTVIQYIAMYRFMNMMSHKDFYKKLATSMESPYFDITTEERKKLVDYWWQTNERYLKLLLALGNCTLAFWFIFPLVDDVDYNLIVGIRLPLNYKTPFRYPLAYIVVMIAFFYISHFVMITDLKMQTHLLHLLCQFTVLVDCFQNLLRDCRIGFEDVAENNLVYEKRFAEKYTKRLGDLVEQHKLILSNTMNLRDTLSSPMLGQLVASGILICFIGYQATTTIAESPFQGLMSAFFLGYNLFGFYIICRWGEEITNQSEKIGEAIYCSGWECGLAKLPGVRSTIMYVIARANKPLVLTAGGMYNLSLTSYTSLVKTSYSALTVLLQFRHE

For `O=CCc1ccccc1` [Phenylacetaldehyde], which “ligand tuning of HarmOR42 orthologs” value [1] is on record?
The value was “robustly tuned to PAA as its best ligand”.

What about the “response of RnubOR13” value (RnubOR13) of the same compound?
The value was “activated neither”.

What about the pEC50 (HarmOR42) of the same compound?
Its pEC50 is 4.32.

What about the “ligand tuning of HarmOR42” value (HarmOR42; 67 odorants at 10^−4 M, listed as PAA) of the same compound?
The value was “largest response; also recorded: high specificity and sensitivity”.

What about the current response (HarmOR42; HarmOR42, odorant 10^−4 M, strongest response detected) of the same compound?
The current response was ~6,000 nA.

What about the pEC50 (HarmOR59) of the same compound?
Its pEC50 is 5.16.

What about the “response of EsemOR19” value (EsemOR19) of the same compound?
Its value is “no response”.
